# Laboratory results taken from patent publication US11725011B2, “Bicyclic urea kinase inhibitors and uses thereof” (The Broad Institute, Inc., priority 2016, dated 2023).
# Columns and labels:
# Experiment in all cases: KINOMEscan
# Format in all cases: binding
# Conditions in all cases: 1 uM
# CDK3 = CDK3 (Homo sapiens (Human), UniProt Q00526)
# TLK1 = TLK1 (Homo sapiens (Human), UniProt Q9UKI8)
# PIK3CA (M1043I) = PIK3CA (M1043I) (Homo sapiens (Human), UniProt P42336, M1043I)
# KIT (V559D, V654A) = KIT (V559D, V654A) (Homo sapiens (Human), UniProt P10721, V559D/V654A)
# Chain of KIT (V559D, V654A) (P10721 26-976 V559D/V654A): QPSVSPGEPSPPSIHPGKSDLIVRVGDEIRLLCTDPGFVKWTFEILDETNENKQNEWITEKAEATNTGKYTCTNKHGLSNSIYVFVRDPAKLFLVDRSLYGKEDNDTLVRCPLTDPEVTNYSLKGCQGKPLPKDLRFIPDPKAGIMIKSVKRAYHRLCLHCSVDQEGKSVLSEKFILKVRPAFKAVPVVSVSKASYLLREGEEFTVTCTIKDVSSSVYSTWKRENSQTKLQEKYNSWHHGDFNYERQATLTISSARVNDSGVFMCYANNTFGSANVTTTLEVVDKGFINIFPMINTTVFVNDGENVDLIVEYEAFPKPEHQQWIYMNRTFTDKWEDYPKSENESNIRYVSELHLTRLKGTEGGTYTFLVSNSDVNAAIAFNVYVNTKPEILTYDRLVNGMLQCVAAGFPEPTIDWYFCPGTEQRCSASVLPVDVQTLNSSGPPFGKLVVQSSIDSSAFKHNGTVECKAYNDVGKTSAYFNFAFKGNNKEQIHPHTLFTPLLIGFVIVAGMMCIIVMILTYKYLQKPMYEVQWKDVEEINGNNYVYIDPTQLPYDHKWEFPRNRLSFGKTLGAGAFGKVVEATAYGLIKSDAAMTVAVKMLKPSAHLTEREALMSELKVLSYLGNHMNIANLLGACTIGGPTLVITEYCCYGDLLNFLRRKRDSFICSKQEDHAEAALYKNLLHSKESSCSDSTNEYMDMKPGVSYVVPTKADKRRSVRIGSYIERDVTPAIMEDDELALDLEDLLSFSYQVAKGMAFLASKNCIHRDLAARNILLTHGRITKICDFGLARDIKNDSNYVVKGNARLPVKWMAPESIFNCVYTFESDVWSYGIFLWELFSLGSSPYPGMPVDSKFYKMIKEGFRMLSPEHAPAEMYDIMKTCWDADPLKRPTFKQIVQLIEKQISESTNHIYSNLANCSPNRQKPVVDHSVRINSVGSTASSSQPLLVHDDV
# PCTK2 = PCTK2 (Homo sapiens (Human), UniProt Q00537)
# ERN1 = ERN1 (Homo sapiens (Human), UniProt O75460)
# PLK3 = PLK3 (Homo sapiens (Human), UniProt Q9H4B4)
# PIK3CA (Q546K) = PIK3CA (Q546K) (Homo sapiens (Human), UniProt P42336, Q546K)
# Chain of PIK3CA (Q546K) (P42336 whole entry Q546K): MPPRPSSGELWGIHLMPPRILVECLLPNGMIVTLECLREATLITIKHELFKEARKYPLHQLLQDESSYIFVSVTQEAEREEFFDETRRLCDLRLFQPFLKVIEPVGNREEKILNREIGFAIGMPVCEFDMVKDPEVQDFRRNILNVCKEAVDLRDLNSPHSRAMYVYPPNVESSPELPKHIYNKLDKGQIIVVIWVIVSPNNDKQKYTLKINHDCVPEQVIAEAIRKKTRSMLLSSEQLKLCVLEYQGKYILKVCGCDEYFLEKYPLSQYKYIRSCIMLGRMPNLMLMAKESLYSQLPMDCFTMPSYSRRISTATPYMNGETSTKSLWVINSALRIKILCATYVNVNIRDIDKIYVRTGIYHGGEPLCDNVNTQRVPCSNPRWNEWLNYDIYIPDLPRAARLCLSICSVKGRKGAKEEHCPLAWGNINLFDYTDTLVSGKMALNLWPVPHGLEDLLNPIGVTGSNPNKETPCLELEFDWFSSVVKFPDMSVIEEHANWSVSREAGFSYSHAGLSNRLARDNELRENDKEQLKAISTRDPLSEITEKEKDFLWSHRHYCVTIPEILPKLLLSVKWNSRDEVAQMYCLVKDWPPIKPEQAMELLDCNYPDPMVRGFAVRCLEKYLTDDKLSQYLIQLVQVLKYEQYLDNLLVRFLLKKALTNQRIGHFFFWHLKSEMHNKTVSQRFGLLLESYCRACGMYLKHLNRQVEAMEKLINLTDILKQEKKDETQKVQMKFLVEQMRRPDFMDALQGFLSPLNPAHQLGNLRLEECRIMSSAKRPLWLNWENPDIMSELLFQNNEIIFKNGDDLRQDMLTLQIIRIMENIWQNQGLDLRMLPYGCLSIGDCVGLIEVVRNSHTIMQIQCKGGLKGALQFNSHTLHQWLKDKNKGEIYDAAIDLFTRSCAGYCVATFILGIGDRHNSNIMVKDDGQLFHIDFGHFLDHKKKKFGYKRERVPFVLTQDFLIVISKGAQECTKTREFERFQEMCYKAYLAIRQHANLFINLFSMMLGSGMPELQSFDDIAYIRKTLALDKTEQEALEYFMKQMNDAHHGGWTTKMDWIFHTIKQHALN
# ERK1 = ERK1 (Homo sapiens (Human), UniProt P27361)
# Chain of ERK1 (P27361 whole entry): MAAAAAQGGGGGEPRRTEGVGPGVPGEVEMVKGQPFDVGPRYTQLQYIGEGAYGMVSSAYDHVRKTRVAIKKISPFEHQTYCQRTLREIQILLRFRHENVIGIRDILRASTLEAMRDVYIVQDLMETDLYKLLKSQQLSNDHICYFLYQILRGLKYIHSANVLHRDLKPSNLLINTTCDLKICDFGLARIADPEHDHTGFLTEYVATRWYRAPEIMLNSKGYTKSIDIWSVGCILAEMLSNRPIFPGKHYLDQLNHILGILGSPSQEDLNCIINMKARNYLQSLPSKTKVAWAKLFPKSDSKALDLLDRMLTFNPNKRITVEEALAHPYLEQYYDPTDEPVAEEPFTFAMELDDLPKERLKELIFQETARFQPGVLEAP
# CDK11 = CDK11 (Homo sapiens (Human), UniProt Q9BWU1)
# Chain of CDK11 (Q9BWU1 whole entry): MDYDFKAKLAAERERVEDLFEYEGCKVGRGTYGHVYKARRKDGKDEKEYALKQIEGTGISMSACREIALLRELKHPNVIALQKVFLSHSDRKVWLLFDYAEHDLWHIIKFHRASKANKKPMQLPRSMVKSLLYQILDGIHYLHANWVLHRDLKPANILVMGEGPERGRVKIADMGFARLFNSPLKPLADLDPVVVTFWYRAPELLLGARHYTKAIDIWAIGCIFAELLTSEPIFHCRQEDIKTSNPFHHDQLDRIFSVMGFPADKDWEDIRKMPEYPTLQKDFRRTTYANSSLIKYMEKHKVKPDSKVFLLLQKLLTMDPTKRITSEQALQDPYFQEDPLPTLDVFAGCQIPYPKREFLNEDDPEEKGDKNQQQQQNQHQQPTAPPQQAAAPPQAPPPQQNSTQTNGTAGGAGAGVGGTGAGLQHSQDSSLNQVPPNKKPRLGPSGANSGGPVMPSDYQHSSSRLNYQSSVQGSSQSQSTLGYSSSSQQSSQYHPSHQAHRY
# PIK3CD = PIK3CD (Homo sapiens (Human), UniProt O00329)
# Chain of PIK3CD (O00329 whole entry): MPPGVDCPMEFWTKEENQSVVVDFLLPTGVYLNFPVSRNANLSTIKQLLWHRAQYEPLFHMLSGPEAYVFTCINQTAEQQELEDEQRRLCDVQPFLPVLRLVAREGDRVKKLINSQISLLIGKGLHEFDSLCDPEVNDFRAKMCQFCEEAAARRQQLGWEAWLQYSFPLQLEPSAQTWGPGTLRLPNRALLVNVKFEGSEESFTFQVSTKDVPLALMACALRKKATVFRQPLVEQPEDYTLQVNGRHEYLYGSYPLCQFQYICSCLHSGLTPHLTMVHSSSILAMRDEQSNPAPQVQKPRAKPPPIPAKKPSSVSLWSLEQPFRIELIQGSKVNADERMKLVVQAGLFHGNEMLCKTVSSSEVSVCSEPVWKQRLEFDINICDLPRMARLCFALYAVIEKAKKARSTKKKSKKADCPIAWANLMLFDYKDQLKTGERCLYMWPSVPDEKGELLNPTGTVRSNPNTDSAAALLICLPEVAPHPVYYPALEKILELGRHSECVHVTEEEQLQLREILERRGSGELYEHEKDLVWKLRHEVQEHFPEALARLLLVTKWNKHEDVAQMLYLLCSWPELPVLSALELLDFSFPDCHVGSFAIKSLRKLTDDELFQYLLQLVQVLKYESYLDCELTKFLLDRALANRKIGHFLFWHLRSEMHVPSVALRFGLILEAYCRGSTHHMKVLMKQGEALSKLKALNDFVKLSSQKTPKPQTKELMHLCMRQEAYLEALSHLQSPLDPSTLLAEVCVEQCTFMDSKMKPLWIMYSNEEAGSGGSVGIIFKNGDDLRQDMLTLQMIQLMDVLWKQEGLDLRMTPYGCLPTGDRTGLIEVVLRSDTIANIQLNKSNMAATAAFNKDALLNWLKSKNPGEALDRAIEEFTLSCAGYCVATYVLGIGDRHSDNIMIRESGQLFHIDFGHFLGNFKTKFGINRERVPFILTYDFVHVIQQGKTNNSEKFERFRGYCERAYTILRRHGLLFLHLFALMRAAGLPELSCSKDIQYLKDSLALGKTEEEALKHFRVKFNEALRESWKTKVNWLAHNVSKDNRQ
# CHEK1 = CHEK1 (Homo sapiens (Human), UniProt O14757)
# BLK = BLK (Homo sapiens (Human), UniProt P51451)
# Chain of BLK (P51451 whole entry): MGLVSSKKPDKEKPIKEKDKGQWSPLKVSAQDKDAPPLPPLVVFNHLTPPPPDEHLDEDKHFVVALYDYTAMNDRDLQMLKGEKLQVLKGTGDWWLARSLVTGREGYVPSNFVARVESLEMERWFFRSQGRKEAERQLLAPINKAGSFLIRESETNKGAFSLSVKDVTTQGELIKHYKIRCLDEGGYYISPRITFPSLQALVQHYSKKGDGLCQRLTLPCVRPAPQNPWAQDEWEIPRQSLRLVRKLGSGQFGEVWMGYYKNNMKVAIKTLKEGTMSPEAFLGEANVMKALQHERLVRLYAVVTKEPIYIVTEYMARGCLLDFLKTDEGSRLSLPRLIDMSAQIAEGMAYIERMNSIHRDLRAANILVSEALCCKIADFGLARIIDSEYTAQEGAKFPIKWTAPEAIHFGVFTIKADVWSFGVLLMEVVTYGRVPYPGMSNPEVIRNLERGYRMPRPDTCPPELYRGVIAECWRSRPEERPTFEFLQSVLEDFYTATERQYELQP
# Chain of CDK3 (Q00526 whole entry): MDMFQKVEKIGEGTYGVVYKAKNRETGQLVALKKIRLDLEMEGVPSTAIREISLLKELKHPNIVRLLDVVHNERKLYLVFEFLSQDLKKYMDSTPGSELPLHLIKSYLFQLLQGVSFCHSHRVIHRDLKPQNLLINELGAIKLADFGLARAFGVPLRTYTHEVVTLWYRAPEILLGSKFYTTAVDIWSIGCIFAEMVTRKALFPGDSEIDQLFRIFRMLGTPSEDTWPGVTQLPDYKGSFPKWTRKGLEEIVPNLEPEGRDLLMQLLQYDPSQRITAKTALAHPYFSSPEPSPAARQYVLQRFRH
# Chain of PIK3CA (M1043I) (P42336 whole entry M1043I): as the sequence (P42336 whole entry Q546K) above, with K546Q, M1043I counted along it
structure (smiles),measurement,setting,value
COc1ccc(N2C(=O)N(c3c(C)cccc3C)Cc3cnc(Nc4ccc(N5CCN(C)CC5)cc4)nc32)c(OC)c1 [HG-11-136-01],KINOMEscan CDK3,CDK3,100
same,KINOMEscan TLK1,TLK1,76
same,KINOMEscan PIK3CA (M1043I),PIK3CA (M1043I),64
same,"KINOMEscan KIT (V559D, V654A)","KIT (V559D, V654A)",2.2
same,KINOMEscan PCTK2,PCTK2,91
same,KINOMEscan ERN1,ERN1,13
same,KINOMEscan PLK3,PLK3,31
same,KINOMEscan PIK3CA (Q546K),PIK3CA (Q546K),94
same,KINOMEscan ERK1,ERK1,100
same,KINOMEscan CDK11,CDK11,89
same,KINOMEscan PIK3CD,PIK3CD,72
same,KINOMEscan CHEK1,CHEK1,82
same,KINOMEscan BLK,BLK,0.1
